Values quoted from earlier work in US11267839B2, “Crystalline forms of LNT” (GLYCOM A/S, priority 2015, dated 2022).

Conditions: prior-art crystalline LNT from aqueous ethanol, after drying

SMILES: CC(=O)N[C@H]1[C@H](O[C@H]2[C@@H](O)[C@@H](CO)O[C@@H](O[C@H]3[C@H](O)[C@@H](O)C(O)O[C@@H]3CO)[C@@H]2O)O[C@H](CO)[C@@H](O)[C@@H]1O[C@@H]1O[C@H](CO)[C@H](O)[C@H](O)[C@H]1O (stereo partly shown) [LNT, Galpβ1-3GlcNAcpβ1-3Galpβ1-4Glc]
- weight taken back when stored in air (hygroscopic): around 8 % of its weight
